This note sets out measurements from patent publication US4868195A, “Novel enolamides, pharmaceutical compositions and methods of use thereof for activity as modulators of the arachidonic acid cascade” (Warner-Lambert Company, priority 1988, dated 1989).

SMILES strings stand for the structures. Where “and” joins values, the source holds several entries; their conditions need not be identical. Identical values can stand only once.

In the first experiment the target is T1, human leukocyte 5-lipoxygenase (Homo sapiens, UniProt P09917).
T1 construct: endogenous in cells; host or cells: intact leukocytes isolated from human blood
T1 sequence (P09917 1-674): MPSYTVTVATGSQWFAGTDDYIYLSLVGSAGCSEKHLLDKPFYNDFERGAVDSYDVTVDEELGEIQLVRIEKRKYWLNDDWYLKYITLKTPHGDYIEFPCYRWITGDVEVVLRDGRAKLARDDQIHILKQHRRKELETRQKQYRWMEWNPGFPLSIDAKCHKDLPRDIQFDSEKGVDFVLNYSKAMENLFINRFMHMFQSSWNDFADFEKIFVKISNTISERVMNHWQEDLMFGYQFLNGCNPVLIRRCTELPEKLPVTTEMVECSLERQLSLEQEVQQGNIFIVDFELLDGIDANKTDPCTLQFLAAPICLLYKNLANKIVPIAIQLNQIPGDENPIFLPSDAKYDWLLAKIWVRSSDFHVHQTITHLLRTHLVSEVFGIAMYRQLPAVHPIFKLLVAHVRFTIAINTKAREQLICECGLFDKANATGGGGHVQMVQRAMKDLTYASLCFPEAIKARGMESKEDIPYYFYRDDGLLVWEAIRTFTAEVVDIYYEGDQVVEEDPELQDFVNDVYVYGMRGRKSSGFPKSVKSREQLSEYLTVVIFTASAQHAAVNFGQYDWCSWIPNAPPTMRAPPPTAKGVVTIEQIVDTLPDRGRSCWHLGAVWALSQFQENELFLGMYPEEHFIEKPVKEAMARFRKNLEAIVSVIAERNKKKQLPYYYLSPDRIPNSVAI
Kind of experiment: 5-lipoxygenase inhibition in human leukocytes, 5-HETE formation (5LOA; methods 5LOA1 and 5LOA2). Type of experiment: cell-based. Particulars: 5-HETE formation, human leukocytes; read-out: Concentration (M) for 50.0 % Inhibition, IC (5LOA). An excerpt: To Evaluate the Effect of Each Compounds as a 5-Lipoxygenase Inhibitor in Comparison to Standard Reference Agents in Human Leukocytes (5LOA1)
The purpose of this assay is to evaluate the activity of each compound as an inhibitor of human leukocyte 5-lipoxygenase.
Arachidonic acid and calcium ionophore A23187 are obtained from Sigma (St. Louis, MO). Silica gel plates, GF are obtained from Analtech (Newark, DE). Arachidonic acid, (1-^14 C) and 5-HETE (^3 H), 5 (S)-hydroxy-6-trans,8,11,14-cis eicosatetraenoic acid, are obtained from New England Nuclear (Boston, MA). Six percent Dextran-70 in 0.9% NaCl is obtained from Cutter Labs (Berkeley, CA).
Preparation of Leukocytes
Fresh blood from normal adult men who had not received any drugs for at least the previous five days is obtained by the Community Research Clinic (WL/PD) using venipuncture and collected into heparinized vacuotainer tubes. To every 100 ml of pooled blood is added 25 ml of dextran solution (6% dextran -70 in 0.9% sodium chloride containing 3% dextrose) and this is mixed gently in a plastic cylinder. The mixture is left to stand at room temperature for at least 90 minutes. The upper layer which is rich in leukocytes and platelets is then carefully decanted into 50 ml plastic tubes and centrifuged at about 100×g for eight minutes in an IEC centrifuge and rotor number 269 (about 600 rpm). The supernatant fluid is discarded and the pellet is resuspended in 10 ml of 0.87% ammonium chloride for exactly two minutes. This procedure is to lyse completely contaminating red blood cells. Leukocytes are then separated by centrifugation for ten minutes. The pellet is washed three times by suspension in 20 ml PBS (sodium chloride, 7.1 g; Na2 HPO4, 1.15 g; KH2 PO4, 0.2 g, and KCl, 0.2 g/L) and centrifuged as before. The final pellet is suspended in PBS containing 0.87 mM CaCl2. Viability of the cells is then checked using trypan blue exclusion method and is found to be over 90%.
5-Lipoxygenase Enzyme Assay
Leukocyte cells in suspension (0.98 ml) are incubated with or without test compounds for five minutes at 37° C. in a shaking water bath. At this time a 17 μl mixture is prepared per 1 ml of cell suspension: 100 mM arachidonic acid, 1 μl, 0.05 μCi ^14 C-arachidonic acid in 5 μl; 1 mM calcium ionophore A23187, 10 μl (1). This mixture is added and the incubation continued for five minutes. The reaction is stopped by adding four volumes of absolute ethanol and the mixture is kept in ice for 30 minutes. The floculated precipitate is separated by centrifugation at about 37,000×g for 20 minutes (Beckman Instruments rotor number 40). The alcohol extract is taken to dryness under a stream of nitrogen and the residue is dissolved in 100-200 μl absolute ethanol. At the time any turbidity is removed by centrifugation. An aliquot (25-50 μl) is applied onto 20×20 cm silica gel TLC plate and developed using the following solvent system: diethyl ether, petroleum ether (2040° C.), acetic acid (50:50:1 v/v). Zones of 1 cm apart are scraped from the TLC plate and transferred to mini-vials. Methanol (0.5 ml) is added to dissolve the radioactivity adsorbed to the silica gel and scintillation fluid (H. P., Beckman), 5 ml is then added and vials are counted in a liquid scintillation counter. A sample of ^3 H-5-HETE is applied and used for the identification of the formed 5-HETE.
Total radioactivity in the test as well as the control samples are normalized and the amount of 5-HETE present is calculated accordingly.
IC50 values are defined as the concentrations of test agents which caused a 50% inhibition of the formation of 5-HETE as compared to control and are determined by inspection of the concentration-response curves.
5-Lipoxygenase Assay Using Isolated Human Leukocytes (5LOA2)
The formation of 5-HETE in human leukocytes is considered a measure of 5-lipoxygenase activity. The protocol is described in the following. […]
As for `O=C(Nc1ccc(CCCc2ccc(Cl)c(Cl)c2)cc1)C1=C(O)c2ccccc2S(=O)(=O)C1` [Example 79, 2H-1-Benzothiopyran-3-carboxamide, N-[4-[3-(3,4-dichlorphenyl)propyl]phenyl]-4-hydroxy-, 1,1-dioxide], the IC50 stood at 9.2e-06 M.

With `O=C(Nc1ccc(CCc2ccc3ccccc3c2)cc1)C1=C(O)c2ccccc2S(=O)(=O)C1` [Example 51, 4-Hydroxy-N-[4-[2-(2-naphthalenyl)ethyl]phenyl]-2H-1-benzothiopyran-3-carboxamide, 1,1-dioxide], the IC50 came out at 2.12e-06 M. For the molecule `O=C(Nc1cccc(CCc2ccc(Cl)c(Cl)c2)c1)c1sc2ccccc2c1O` [Example 146, Benzo[b]thiophene-2-carboxamide, N-[3-[2-(3,4-dichlorophenyl)ethyl]phenyl]-3-hydroxy], the IC50 came to 3.96e-06 M. The same measure, in the same setting: next, `O=C(Nc1ccc(CCc2c(F)c(F)c(F)c(F)c2F)cc1)C1=C(O)c2ccccc2S(=O)(=O)C1` [Example 64, N-[4-[2-(2,3,4,5,6-Pentafluorophenyl)ethyl]phenyl]-4-hydroxy-2H-1-benzothiopyran-3-carboxamide, 1,1-dioxide]: 1.19e-05 M; `COc1ccc(CCc2ccc(NC(=O)c3sc4ccccc4c3O)cc2)cc1OC` [Example 143, Benzo[b]thiophene-2-carboxamide, N-[4-[2-(3,4-dimethoxphenyl)ethyl]phenyl]-3-hydroxy]: 5.22e-06 M; `COc1ccc(CCc2ccc(NC(=O)C3CS(=O)(=O)c4ccccc4C3=O)cc2)cc1O` (centres unmarked) [Example 27, 3,4-Dihydro-N-[4-[2-(3-hydroxy-4-methoxyphenyl)ethyl]phenyl]-4-oxo-2H-1-benzothiopyran-3-carboxamide, 1,1-dioxide]: 1.8e-05 M. Same read-out and setting: next, `COc1ccc(CCc2ccc(NC(=O)C3CS(=O)(=O)c4ccccc4C3=O)cc2)cc1` (centres unmarked) [Example 41]: 7e-06 M.

Take `O=C(Nc1ccc(CCc2ccc(Cl)cc2)cc1)C1CS(=O)(=O)c2ccccc2C1=O` (centres unmarked) [Example 54, N-[4-[2-(4-Chlorophenyl)ethyl]phenyl]-3,4-dihydro-4-oxo-2H-1-benzothiopyran-3-carboxamide, 1,1-dioxide]: the IC50 turned out to be 5.25e-06 M. On the same count and under the same terms, the value for `Cc1ccc(CCc2ccc(NC(=O)C3CS(=O)(=O)c4ccccc4C3=O)cc2)cc1C` (centres unmarked) [Example 53, N-[4-[2-(3,4-Dimethylphenyl)ethyl]phenyl]-3,4-dihydro-4-oxo-2H-1-benzothiopyran-3-carboxamide, 1,1-dioxide] was 3.8e-06 M.

As to `O=C(Nc1ccc(C=Cc2ccc([N+](=O)[O-])cc2)cc1)C1CS(=O)(=O)c2ccccc2C1=O` (centres unmarked) [Example 67, 2H-1-Benzothiopyran-3-carboxamide, 3,4-dihydro-N-[4-[2-(4-nitrophenyl)ethenyl]phenyl]-4-oxo-, 1,1-dixide], the IC50 is 1.17e-05 M.

For the molecule `O=C(Nc1ccc(CCc2ccccc2)cc1)C1CS(=O)(=O)c2ccccc2C1=O` (centres unmarked) [Example 16, 3,4-Dihydro-4-oxo-N-[(4-(2-phenyl)ethyl]-phenyl]-2H-1-benzothiopyran-3-carboxamide, 1,1-dioxide], the IC50 worked out at 1.77e-05 M.

Take `O=C(Nc1ccc(CCc2ccc(-c3ccccc3)cc2)cc1)C1CS(=O)(=O)c2ccccc2C1=O` (centres unmarked) [Example 46, N-[4-[2-([1,1'-biphenyl]-4-yl)ethyl]phenyl]-3,4-dihydro-4-oxo-2H-1-benzothiopyran-3-carboxamide, 1,1-dioxide]: the IC50 turned out to be 1.1e-05 M. The same measure, in the same setting: next, `O=C(Nc1ccc(CCc2cccc3ccccc23)cc1)C1=C(O)c2ccccc2S(=O)(=O)C1` [Example 73, 2H-1-Benzothiopyran-3-carboxamide, 4-hydroxy-N-[4-[2-(1-naphthalenyl)ethyl]phenyl], 1,1-dioxide]: 4.09e-06 M and 8.2e-06 M; `COc1ccc(CCc2ccc(NC(=O)C3=C(O)c4ccccc4S(=O)(=O)C3)cc2)cc1OC` [Example 18, N-[4-[2-(3,4-Dimethoxyphenyl)ethyl]phenyl]-4-hydroxy-2H-1-benzothiopyran-3-carboxamide, 1,1-dioxide]: 1.35e-05 M; `CCCCOc1ccc(CCc2ccc(NC(=O)C3CS(=O)(=O)c4ccccc4C3=O)cc2)cc1` (centres unmarked) [Example 48]: 1.59e-05 M and 1.91e-05 M. On the same count and under the same terms, next, `O=C(Nc1ccc(Cc2ccc(Cl)c(Cl)c2)cc1)C1=C(O)c2ccccc2S(=O)(=O)C1` [Example 78, 2H-1-Benzothiopyran-3-carboxamide, N-[4-[(3,4-dichlorophenyl)methyl]phenyl]-4-hydroxy-, 1,1-dioxide]: 1.06e-05 M.

In the case of `O=C(Nc1ccccc1CCCc1ccc(Cl)c(Cl)c1)C1=C(O)c2ccccc2S(=O)(=O)C1` [Example 80, 2H-1-Benzothiopyran-3-carboxamide, N-[2-[3-(3,4-dichlorophenyl)propyl]phenyl]-4-hydroxy-, 1,1-dioxide], the IC50 is 1.01e-05 M. On the same count and under the same terms, the value for `O=C(Nc1cccc(CCc2ccc(Cl)c(Cl)c2)c1)C1=C(O)c2ccccc2S(=O)(=O)C1` [Example 76, 2H-1-Benzothiopyran-3-carboxamide, N-[3-[2-(3,4-dichlorophenyl)ethyl]phenyl]-4-hydroxy-, 1,1-dioxide] was 1.1e-05 M; that for `COc1cc(CCc2ccc(NC(=O)C(=O)c3sc4ccccc4c3O)cc2)ccc1O` [Example 142, Benzo[b]thiophene-2-acetamide, 3-hydroxy-N-[4-[2-(4-hydroxy-3-methoxyphenyl)ethyl]phenyl]-α-oxo-] was 6e-06 M. The same measure, in the same setting: next, `O=C(Nc1ccc(C=Cc2ccc(Cl)c(Cl)c2)cc1)C1=C(O)c2ccccc2S(=O)(=O)C1` [Example 74, 2H-1-Benzothiopyran-3-carboxamide, N-[4-[2-(3,4-dichlorophenyl)ethenyl]phenyl]-4-hydroxy-, 1,1-dioxide]: 9.3e-06 M.

Staying with this experiment, now noted: Concentration 1.00 E -5 M.
For the molecule `CCCCCCCCCCc1ccc(NC(=O)C2CS(=O)(=O)c3ccccc3C2=O)cc1` (centres unmarked) [Example 60, N-(4-Decylphenyl)-3,4-dihydro-4-oxo-2H-1-benzoothiopyran-3-carboxamide, 1,1-dioxide], the “% Inhibition (5LOA)” value is 25.2%.

Still in this experiment, the particulars now being: Concentration 2.00 E -5 M.
Take `CCCCCCCCCCc1ccc(NC(=O)C2CS(=O)(=O)c3ccccc3C2=O)cc1` (centres unmarked) [Example 60, N-(4-Decylphenyl)-3,4-dihydro-4-oxo-2H-1-benzoothiopyran-3-carboxamide, 1,1-dioxide]: the “% Inhibition (5LOA)” value worked out at 21.7%.

Staying with this experiment, now noted: Concentration 5.00 E -6 M.
Regarding `CCCCCCCCCCc1ccc(NC(=O)C2CS(=O)(=O)c3ccccc3C2=O)cc1` (centres unmarked) [Example 60, N-(4-Decylphenyl)-3,4-dihydro-4-oxo-2H-1-benzoothiopyran-3-carboxamide, 1,1-dioxide], the “% Inhibition (5LOA)” value was 7.9%.
